In ChEMBL document CHEMBL5154747, “Discovery of new carbonic anhydrase IX inhibitors as anticancer agents by toning the hydrophobic and hydrophilic rims of the active site to encounter the dual-tail approach” (Eur J Med Chem, 2022):

Tests used:
Assay type in all cases: functional
Details in all cases: read-out: GI
SW-620 = experiment: Anticancer activity against human SW-620 cells assessed as cell growth inhibition at 10 uM incubated for 48 hrs by SRB assay relative to control
IGROV-1 = experiment: Anticancer activity against human IGROV-1 cells assessed as cell growth inhibition at 10 uM incubated for 48 hrs by SRB assay relative to control
SK-OV-3 = experiment: Anticancer activity against human SK-OV-3 cells assessed as cell growth inhibition at 10 uM incubated for 48 hrs by SRB assay relative to control
NCI/ADR-RES = experiment: Anticancer activity against human NCI/ADR-RES cells assessed as cell growth inhibition at 10 uM incubated for 48 hrs by SRB assay relative to control
SK-MEL-28 = experiment: Anticancer activity against human SK-MEL-28 cells assessed as cell growth inhibition at 10 uM incubated for 48 hrs by SRB assay relative to control
CCRF-CEM = experiment: Anticancer activity against human CCRF-CEM cells assessed as cell growth inhibition at 10 uM incubated for 48 hrs by SRB assay relative to control
MDA-MB-435 = experiment: Anticancer activity against human MDA-MB-435 cells assessed as cell growth inhibition at 10 uM incubated for 48 hrs by SRB assay relative to control
HCC 2998 = experiment: Anticancer activity against human HCC 2998 cells assessed as cell growth inhibition at 10 uM incubated for 48 hrs by SRB assay relative to control
DU-145 = experiment: Anticancer activity against human DU-145 cells assessed as cell growth inhibition at 10 uM incubated for 48 hrs by SRB assay relative to control
UACC-62 = experiment: Anticancer activity against human UACC-62 cells assessed as cell growth inhibition at 10 uM incubated for 48 hrs by SRB assay relative to control
CAKI-1 = experiment: Anticancer activity against human CAKI-1 cells assessed as cell growth inhibition at 10 uM incubated for 48 hrs by SRB assay relative to control
HL-60(TB) = experiment: Anticancer activity against human HL-60(TB) cells assessed as cell growth inhibition at 10 uM incubated for 48 hrs by SRB assay relative to control
NCI-H322M = experiment: Anticancer activity against human NCI-H322M cells assessed as cell growth inhibition at 10 uM incubated for 48 hrs by SRB assay relative to control
HCT-116 = experiment: Anticancer activity against human HCT-116 cells assessed as cell growth inhibition at 10 uM incubated for 48 hrs by SRB assay relative to control
ACHN = experiment: Anticancer activity against human ACHN cells assessed as cell growth inhibition at 10 uM incubated for 48 hrs by SRB assay relative to control
UACC-257 = experiment: Anticancer activity against human UACC-257 cells assessed as cell growth inhibition at 10 uM incubated for 48 hrs by SRB assay relative to control
BT-549 = experiment: Anticancer activity against human BT-549 cells assessed as cell growth inhibition at 10 uM incubated for 48 hrs by SRB assay relative to control
SR = experiment: Anticancer activity against human SR cells assessed as cell growth inhibition at 10 uM incubated for 48 hrs by SRB assay relative to control
NCI-H226 = experiment: Anticancer activity against human NCI-H226 cells assessed as cell growth inhibition at 10 uM incubated for 48 hrs by SRB assay relative to control
SF-295 = experiment: Anticancer activity against human SF-295 cells assessed as cell growth inhibition at 10 uM incubated for 48 hrs by SRB assay relative to control

SMILES	inhibition of growth at 10 µM (SW-620)	inhibition of growth at 10 µM (IGROV-1)	inhibition of growth at 10 µM (SK-OV-3)	inhibition of growth at 10 µM (NCI/ADR-RES)	inhibition of growth at 10 µM (SK-MEL-28)	inhibition of growth at 10 µM (CCRF-CEM)	inhibition of growth at 10 µM (MDA-MB-435)	inhibition of growth at 10 µM (HCC 2998)	inhibition of growth at 10 µM (DU-145)	inhibition of growth at 10 µM (UACC-62)	inhibition of growth at 10 µM (CAKI-1)	inhibition of growth at 10 µM (HL-60(TB))	inhibition of growth at 10 µM (NCI-H322M)	inhibition of growth at 10 µM (HCT-116)	inhibition of growth at 10 µM (ACHN)	inhibition of growth at 10 µM (UACC-257)	inhibition of growth at 10 µM (BT-549)	inhibition of growth at 10 µM (SR)	inhibition of growth at 10 µM (NCI-H226)	inhibition of growth at 10 µM (SF-295)
COc1ccc(/C=N/Nc2nc(Nc3ccccc3)nc(Nc3ccc(S(N)(=O)=O)cc3)n2)cc1	27%	41%	< 10%	< 10%	21%	54%	23%	12%	34%	12%	24%	16%	15%	49%	24%	< 10%	14%	51%	26%	29%
NS(=O)(=O)c1ccc(Nc2nc(N/N=C/CCc3ccccc3)nc(Nc3ccccc3)n2)cc1	< 10%	< 10%	< 10%	< 10%	< 10%	< 10%	< 10%	< 10%	< 10%	< 10%	< 10%	< 10%	< 10%	< 10%	< 10%	< 10%	< 10%	< 10%	< 10%	< 10%
NS(=O)(=O)c1ccc(Nc2nc(N/N=C/c3ccccc3)nc(Nc3ccccc3)n2)cc1	< 10%	38%	< 10%	< 10%	27%	52%	26%	21%	38%	31%	27%	40%	27%	27%	17%	< 10%	< 10%	25%	22%	27%
Cc1ccc(/C=N/Nc2nc(Nc3ccccc3)nc(Nc3ccc(S(N)(=O)=O)cc3)n2)cc1	< 10%	46%	< 10%	< 10%	24%	57%	30%	25%	34%	< 10%	39%	24%	> 10%	48%	38%	< 10%	23%	64%	20%	42%
CCCCc1nc(/C=N/Nc2nc(Nc3ccccc3)nc(Nc3ccc(S(N)(=O)=O)cc3)n2)c(Cl)[nH]1	24%	< 10%	< 10%	< 10%	28%	87%	< 10%	29%	15%	27%	< 10%	< 10%	< 10%	< 10%	< 10%	< 10%	52%	88%	< 10%	< 10%
NS(=O)(=O)c1ccc(Nc2nc(N/N=C/c3ccc(F)cc3)nc(Nc3ccccc3)n2)cc1	24%	56%	28%	< 10%	36%	80%	46%	44%	68%	39%	43%	39%	41%	55%	19%	52%	32%	42%	49%	29%
NS(=O)(=O)c1ccc(Nc2nc(N/N=C/c3ccc([N+](=O)[O-])cc3)nc(Nc3ccccc3)n2)cc1	81%	47%	32%	< 10%	64%	88%	66%	80%	56%	54%	49%	64%	60%	83%	17%	17%	81%	84%	40%	42%
NS(=O)(=O)c1ccc(Nc2nc(N/N=C/c3ccc(Cl)cc3)nc(Nc3ccccc3)n2)cc1	< 10%	33%	< 10%	< 10%	24%	80%	42%	23%	27%	25%	37%	27%	< 10%	55%	< 10%	10%	25%	81%	18%	41%
NS(=O)(=O)c1ccc(Nc2nc(N/N=C/c3cccc4ccccc34)nc(Nc3ccccc3)n2)cc1	< 10%	26%	< 10%	< 10%	20%	81%	41%	15%	31%	18%	23%	28%	< 10%	45%	18%	< 10%	< 10%	65%	19%	29%
NS(=O)(=O)c1ccc(Nc2nc(N/N=C/C=C/c3ccccc3)nc(Nc3ccccc3)n2)cc1	48%	63%	21%	< 10%	39%	75%	48%	61%	57%	33%	53%	61%	43%	70%	61%	20%	34%	85%	41%	55%
